Patent publication US11834440B2, “Beta-lactam derivatives for the treatment of diseases” (Insilico Medicine IP Limited, priority 2021, dated 2023)

Biological target: QPCTL (Homo sapiens (Human), UniProt Q9NXS2)
Experiment: QPCTL inhibition, SensoLyte Green Glutaminyl Cyclase Activity Assay
Type: biochemical
Conditions: 0.8 nM 2x enzyme solution, 45 min at 37° C., 50 mM Tris pH 8.0, 1% DMSO
Protocol: Preparation of working solution: 2×Glutaminyl Cyclase substrate was diluted in assay buffer to […]. 2×enzyme solution and QPCTL was diluted in assay buffer to 0.8 nM. Glutaminyl Cyclase Developer was diluted in assay buffer to 1×(containing 10 mM 1-Benzyl-Imidazole). Serial dilution of test compounds was performed in DMSO. The final DMSO concentration in 100 μl reaction was 1%. The assay buffer was 50 mM Tris, pH 8.0, 0.01% BSA.
Procedure: 50 μL of 2×Glutaminyl Cyclase substrate solution was added into the assay plate followed by 50 μL of 2×enzyme solution. The plate was centrifuged for 1 min at 1000 rmp. Next the plate was incubated for 45 minutes at 37° C. This was followed by the additional of 50 μL of the prepared Glutaminyl Cyclase developer and incubated for additional 30 min at 37° C. Results were read on SpectraMax Paradigm detecting with emission at Ex/Em=490 nm/520 nm.
A Z′ value was calculated for each assay plate. The Z′ value must be >0.5 or the plate was disqualified. […] Results were calculated using GraphPad Prism 7 software is used for IC50 determination.

Sequence of QPCTL (Q9NXS2 whole entry, species assumed): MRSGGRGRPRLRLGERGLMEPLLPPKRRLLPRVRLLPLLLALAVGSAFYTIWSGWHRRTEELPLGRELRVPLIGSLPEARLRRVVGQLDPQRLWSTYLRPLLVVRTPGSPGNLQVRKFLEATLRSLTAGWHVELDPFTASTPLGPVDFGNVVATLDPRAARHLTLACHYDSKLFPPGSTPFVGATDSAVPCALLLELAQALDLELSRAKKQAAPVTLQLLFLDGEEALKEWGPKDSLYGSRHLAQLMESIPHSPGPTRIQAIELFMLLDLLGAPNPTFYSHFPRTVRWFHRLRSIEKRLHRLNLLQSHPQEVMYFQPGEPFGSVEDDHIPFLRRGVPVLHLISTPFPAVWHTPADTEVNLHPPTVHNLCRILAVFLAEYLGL

Row | IC50 [nM] | Structure (SMILES)
1 | 2 to 25 | Cc1nc(-c2cc(F)c([C@H]3[C@@H](C)C(=O)N3c3ccc4[nH]cnc4c3)c(F)c2)cs1 (racemic) [Compound 10CR, (cis and racemic)-1-(1H-benzo[d]imidazol-5-yl)-4-(2,6-difluoro-4-(2-methylthiazol-4-yl)phenyl)-3-methylazetidin-2-one]
2 | 2 to 25 | Cc1ncc(-c2cc(F)c([C@H]3[C@@H](C)C(=O)N3c3ccc4[nH]cnc4c3)c(F)c2)s1 (racemic) [Compound 11CR, (cis and racemic)-1-(1H-benzo[d]imidazol-5-yl)-4-(2,6-difluoro-4-(2-methylthiazol-5-yl)phenyl)-3-methylazetidin-2-one]
3 | 2 to 25 | C[C@H]1C(=O)N(c2ccc3[nH]cnc3c2)[C@H]1c1c(F)cc(N2CCC(F)(F)C2)cc1F (racemic) [Compound 12CR, (cis and racemic)-1-(1H-benzo[d]imidazol-5-yl)-4-(4-(3,3-difluoropyrrolidin-1-yl)-2,6-difluorophenyl)-3-methylazetidin-2-one]
4 | < 2 | O=C1[C@H](O)[C@H](c2c(F)cc(-c3cnn(C(F)(F)F)c3)cc2F)N1c1ccc2[nH]cnc2c1 (racemic) [Compound 16CR]
5 | 25 to 1000 | O=C1[C@@H](O)[C@H](c2c(F)cc(-c3cnn(C(F)(F)F)c3)cc2F)N1c1ccc2[nH]cnc2c1 (racemic) [Compound 16TR]
6 | 2 to 25 | C[C@H]1C(=O)N(c2ccc3[nH]cnc3c2)[C@H]1c1ccc(OCCC(F)F)nc1 (racemic) [Compound 23CR, (cis and racemic)-1-(1H-benzo[d]imidazol-5-yl)-4-(6-(3,3-difluoropropoxy)pyridin-3-yl)-3-methylazetidin-2-one]
7 | < 2 | O=C1[C@H](O)[C@H](c2c(F)cc(-c3cnn(C(F)F)c3)cc2F)N1c1ccc2[nH]cnc2c1 (racemic) [Compound 25CR]
8 | 2 to 25 | O=C1[C@@H](O)[C@H](c2c(F)cc(-c3cnn(C(F)F)c3)cc2F)N1c1ccc2[nH]cnc2c1 (racemic) [Compound 25TR]
9 | 2 to 25 | C[C@H]1C(=O)N(c2ccc3[nH]cnc3c2)[C@H]1c1c(F)cc(-n2cc(C(F)(F)F)cn2)cc1F (racemic) [Compound 28CR, (cis and racemic)-1-(1H-benzo[d]imidazol-5-yl)-4-(2,6-difluoro-4-(4-(trifluoromethyl)-1H-pyrazol-1-yl)phenyl)-3-methylazetidin-2-one]
10 | 2 to 25 | C[C@@H]1C(=O)N(c2ccc3[nH]cnc3c2)[C@H]1c1c(F)cc(-n2cc(C(F)(F)F)cn2)cc1F (racemic) [Compound 28TR, (trans and racemic)-1-(1H-benzo[d]imidazol-5-yl)-4-(2,6-difluoro-4-(4-(trifluoromethyl)-1H-pyrazol-1-yl)phenyl)-3-methylazetidin-2-one]
11 | < 2 | C[C@H]1C(=O)N(c2ccc3[nH]cnc3c2)[C@H]1c1c(F)cc(OCCC2CC2)cc1F (racemic) [Compound 34CR, (Cis and racemic)-1-(1H-benzo[d]imidazol-5-yl)-4-(4-(2-cyclopropylethoxy)-2,6-difluorophenyl)-3-methylazetidin-2-one]
12 | 25 to 1000 | C[C@@H]1C(=O)N(c2ccc3[nH]cnc3c2)[C@H]1c1c(F)cc(OCCC2CC2)cc1F (racemic) [Compound 34TR, (Trans and racemic)-1-(1H-benzo[d]imidazol-5-yl)-4-(4-(2-cyclopropylethoxy)-2,6-difluorophenyl)-3-methylazetidin-2-one]
13 | > 1000 | C[C@@H]1C(=O)N(c2ccc3[nH]cnc3c2)[C@@H]1c1c(F)cc(-c2cnn(C)c2)cc1F (single isomer, unassigned) [Compound 13A]
14 | 2 to 25 | C[C@H]1C(=O)N(c2ccc3[nH]cnc3c2)[C@H]1c1c(F)cc(-c2cnn(C)c2)cc1F (single isomer, unassigned) [Compound 13B]
15 | 25 to 1000 | C[C@@H]1C(=O)N(c2ccc3[nH]cnc3c2)[C@@H]1c1c(F)cc(-c2cnn(C(F)(F)F)c2)cc1F (single isomer, unassigned) [Compound 14A]
16 | < 2 | C[C@H]1C(=O)N(c2ccc3[nH]cnc3c2)[C@H]1c1c(F)cc(-c2cnn(C(F)(F)F)c2)cc1F (single isomer, unassigned) [Compound 14B]
17 | > 1000 | Cn1cc(-c2cc(F)c([C@@H]3[C@H](O)C(=O)N3c3ccc4[nH]cnc4c3)c(F)c2)cn1 (single isomer, unassigned) [Compound 15A]
18 | < 2 | Cn1cc(-c2cc(F)c([C@H]3[C@@H](O)C(=O)N3c3ccc4[nH]cnc4c3)c(F)c2)cn1 (single isomer, unassigned) [Compound 15B]
19 | 25 to 1000 | C[C@@H]1C(=O)N(c2ccc3[nH]cnc3c2)[C@@H]1c1c(F)cc(-c2cnn(C(F)F)c2)cc1F (single isomer, unassigned) [Compound 17A]
20 | < 2 | C[C@H]1C(=O)N(c2ccc3[nH]cnc3c2)[C@H]1c1c(F)cc(-c2cnn(C(F)F)c2)cc1F (single isomer, unassigned) [Compound 17B]
21 | > 1000 | O=C1[C@@H](C2CC2)[C@@H](c2c(F)cc(OCCC(F)F)cc2F)N1c1ccc2[nH]cnc2c1 (single isomer, unassigned) [Compound 18A]
22 | < 2 | O=C1[C@H](C2CC2)[C@H](c2c(F)cc(OCCC(F)F)cc2F)N1c1ccc2[nH]cnc2c1 (single isomer, unassigned) [Compound 18B]
23 | 25 to 1000 | C=C1C(=O)N(c2ccc3[nH]cnc3c2)[C@@H]1c1c(F)cc(OCCC(F)F)cc1F (single isomer, unassigned) [Compound 22A]
24 | < 2 | C=C1C(=O)N(c2ccc3[nH]cnc3c2)[C@H]1c1c(F)cc(OCCC(F)F)cc1F (single isomer, unassigned) [Compound 22B]
25 | > 1000 | C[C@@H]1C(=O)N(c2ccc3[nH]cnc3c2)[C@@H]1c1c(F)cc(N2CCC(F)(F)CC2)cc1F (single isomer, unassigned) [Compound 30A]
26 | 2 to 25 | C[C@H]1C(=O)N(c2ccc3[nH]cnc3c2)[C@H]1c1c(F)cc(N2CCC(F)(F)CC2)cc1F (single isomer, unassigned) [Compound 30B]

More lines, now with the values behind:

Row | Structure (SMILES) | IC50 [nM]
27 | CC1(C)C(=O)N(c2ccc3[nH]cnc3c2)C1c1c(F)cc(OCCC(F)F)cc1F (racemic) [Compound 2, 1-(1H-benzo[d]imidazol-5-yl)-4-(4-(3,3-difluoropropoxy)-2,6-difluorophenyl)-3,3-dimethylazetidin-2-one] | > 1000
28 | O=C1N(c2ccc3[nH]cnc3c2)C(c2c(F)cc(OCCC(F)F)cc2F)C12CCC2 (racemic) [Compound 3, 2-(1H-benzo[d]imidazol-5-yl)-3-(4-(3,3-difluoropropoxy)-2,6-difluorophenyl)-2-azaspiro[3.3]heptan-1-one] | 25 to 1000
29 | CN1CCN(c2cc(F)c(C3CC(=O)N3c3ccc4[nH]cnc4c3)c(F)c2)CC1 (racemic) [Compound 4, 1-(1H-benzo[d]imidazol-5-yl)-4-(2,6-difluoro-4-(4-methylpiperazin-1-yl)phenyl)azetidin-2-one] | 2 to 25
30 | CC1C(=O)N(c2ccc3[nH]cnc3c2)C1c1c(F)cc(OCCC(F)F)cc1F (racemic) [Compound 7, 1-(1H-benzo[d]imidazol-5-yl)-4-(4-(3,3-difluoropropoxy)-2,6-difluorophenyl)-3-methylazetidin-2-one] | 2 to 25
31 | O=C1C(O)C(c2c(F)cc(OCCC(F)F)cc2F)N1c1ccc2[nH]cnc2c1 (racemic) [Compound 8, (cis and racemic)-1-(1H-benzo[d]imidazol-5-yl)-4-(4-(3,3-difluoropropoxy)-2,6-difluorophenyl)-3-hydroxyazetidin-2-one] | 2 to 25
32 | O=C1[C@@H](O)[C@H](c2c(F)cc(OCCC(F)F)cc2F)N1c1ccc2[nH]cnc2c1 (racemic) [Compound 8TR, (trans and racemic)-1-(1H-benzo[d]imidazol-5-yl)-4-(4-(3,3-difluoropropoxy)-2,6-difluorophenyl)-3-hydroxyazetidin-2-one] | 25 to 1000
33 | Cn1cc(-c2cc(F)c(C3CC(=O)N3c3ccc4[nH]cnc4c3)c(F)c2)cn1 (racemic) [Compound 9, 1-(1H-benzo[d]imidazol-5-yl)-4-(2,6-difluoro-4-(1-methyl-1H-pyrazol-4-yl)phenyl)azetidin-2-one] | 25 to 1000
34 | CC1C(=O)N(c2ccc3[nH]cnc3c2)C1c1c(F)cc(-c2cnn(C(F)(F)F)c2)cc1F (racemic) [Compound 14, (cis and racemic)-1-(1H-benzo[d]imidazol-5-yl)-4-(2,6-difluoro-4-(1-(trifluoromethyl)-1H-pyrazol-4-yl)phenyl)-3-methyl azetidin-2-one] | 2 to 25
35 | C=C1C(=O)N(c2ccc3[nH]cnc3c2)C1c1c(F)cc(OCCC(F)F)cc1F (racemic) [Compound 22, (racemic)-1-(1H-benzo[d]imidazol-5-yl)-4-(4-(3,3-difluoropropoxy)-2,6-difluorophenyl)-3-methyleneazetidin-2-one] | < 2
36 | C[C@@H]1C(=O)N(c2ccc3[nH]cnc3c2)[C@H]1c1c(F)cc(OCCC(F)F)cc1F (single isomer, unassigned) [Compound 7A] | 25 to 1000
37 | C[C@H]1C(=O)N(c2ccc3[nH]cnc3c2)[C@H]1c1c(F)cc(OCCC(F)F)cc1F (single isomer, unassigned) [Compound 7B] | < 2
38 | O=C1[C@@H](O)[C@@H](c2c(F)cc(OCCC(F)F)cc2F)N1c1ccc2[nH]cnc2c1 (single isomer, unassigned) [Compound 8A] | > 1000
39 | O=C1[C@H](O)[C@H](c2c(F)cc(OCCC(F)F)cc2F)N1c1ccc2[nH]cnc2c1 (single isomer, unassigned) [Compound 8B] | < 2
